We go through 37 compounds from PubChem BioAssay (NCI).

Test systems include M19-MEL melanoma; XF 498 CNS; DLD-1 colon; DMS 114 small cell lung; HOP-18 NSCLC; DMS 273 small cell lung; RXF-631 renal; KM20L2 colon; MDA-N.
Common to all, as to experiment: growth of human tumour cells (NCI), 48 h

“And” between values parts separate entries of the source, which are not always exact repeats. Equal values may be shown once.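 Assay format: 96-well plates, 48-hour exposure. GI50 is the concentration that inhibits growth by half. TGI: total growth inhibition.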

Regarding `Cc1cc2c(cc1C)[n+](=O)c(C(=O)/C=C/c1ccccc1Cl)c(C)n2[O-]`, the TGI in the assay on M19-MEL melanoma is over 100 µM; in the assay with XF 498 CNS it was 42.1 µM; with DLD-1 colon, 42.1 µM; with DMS 114 small cell lung it was 53.4 µM; with HOP-18 NSCLC, over 100 µM; in the assay with DMS 273 small cell lung it was over 100 µM. In addition, the values for the TGI with RXF-631 renal and with KM20L2 colon were 84.9 µM and over 100 µM, respectively.

Consider `C[n+]1ccc(-c2c3nc(c(-c4ccc5c(ccc[n+]5C)c4)c4ccc([nH]4)c(-c4cc[n+](C)cc4)c4nc(c(-c5ccc6c(ccc[n+]6C)c5)c5ccc2[nH]5)C=C4)C=C3)cc1`, for which, in the assay on MDA-N, the GI50 is 30 µM and the TGI was over 50 µM.

In the case of `O=C(O)C1OC(Oc2cc(O)c3c(=O)cc(-c4ccc(O)cc4)oc3c2)C(O)C(O)C1O` (stereo not drawn), the TGI with M19-MEL melanoma was over 100 µM; in the assay with XF 498 CNS, 83 µM; in the assay with DLD-1 colon it was over 100 µM; in the assay with DMS 114 small cell lung, over 100 µM; in the assay on DMS 273 small cell lung, over 100 µM; with KM20L2 colon, over 100 µM.

Turning to `COc1cc(-c2cc(CCC(=O)Nc3ccccc3[N+](=O)[O-])n(-c3ccc([N+](=O)[O-])cc3[N+](=O)[O-])n2)ccc1O`, the GI50 in the assay on M19-MEL melanoma, with DLD-1 colon, in the assay with DMS 114 small cell lung, in the assay with RXF-631 renal and with KM20L2 colon was over 100 µM throughout. Also, the TGI in the assay with M19-MEL melanoma was over 100 µM; with XF 498 CNS, over 100 µM; with DLD-1 colon, over 100 µM; with DMS 114 small cell lung, over 100 µM; in the assay on HOP-18 NSCLC it was over 10 µM; in the assay with DMS 273 small cell lung it was over 10 µM. The TGI in the assay on RXF-631 renal and in the assay on KM20L2 colon was over 100 µM throughout.

Regarding `Cc1cccc(NC(=O)CC#N)c1Cl`, the TGI in the assay with M19-MEL melanoma, in the assay with XF 498 CNS, in the assay on DLD-1 colon, in the assay with DMS 273 small cell lung and in the assay with KM20L2 colon was over 100 µM each time.

Turning to `N#CC1=C(c2ccccc2)C(O)(c2ccccc2)NC1=O` (stereo not drawn), the TGI in the assay with M19-MEL melanoma, with XF 498 CNS, in the assay on DLD-1 colon, in the assay with DMS 114 small cell lung, with HOP-18 NSCLC and with DMS 273 small cell lung was over 100 µM throughout. The TGI in the assay with RXF-631 renal and with KM20L2 colon was over 100 µM each time.

Compound `CN1CCCCC1CCN1c2ccccc2Sc2ccc(S(C)=O)cc21` (stereo not drawn) displayed a TGI in the assay on MDA-N of over 100 µM.

For the compound `Cc1nc2cc(N)c(Cl)cc2[nH]1`, in the assay on MDA-N, the TGI was over 100 µM.

`Oc1cc2c(cc1O)-c1[nH]ncc1CC2`: the TGI is over 100 µM in the assay with M19-MEL melanoma; 86.7 µM in the assay on XF 498 CNS; over 100 µM in the assay with DLD-1 colon; 75.2 µM with DMS 114 small cell lung; 61.8 µM in the assay on HOP-18 NSCLC; over 100 µM in the assay with DMS 273 small cell lung. In the assay on KM20L2 colon, this compound returned a TGI of over 100 µM.

For the compound `Cn1c(=S)sc2nc3ccccc3n2c1=S`, the TGI in the assay with MDA-N stood at 38.5 µM.

Turning to `O=C(O)/C=C\C(=O)Nc1ccc2c(c1)C(=O)c1cc(F)ccc1-2`, the TGI in the assay on MDA-N is over 100 µM.

Take `O=C1c2ccccc2C(=O)c2c1ccc1c2OCO1`: the TGI in the assay with MDA-N was over 100 µM.

Consider `CC(C)CC(=O)NS(=O)(=O)c1ccccc1`, for which the TGI in the assay on M19-MEL melanoma, in the assay with XF 498 CNS, in the assay with DLD-1 colon, with DMS 114 small cell lung, in the assay on HOP-18 NSCLC and with RXF-631 renal was over 100 µM each time. Moreover, the TGI in the assay on KM20L2 colon was over 100 µM.

Consider `O=C([O-])c1ccccc1Nc1ccccc1[O-].[Ni+3].[OH3+].[OH3+].[OH3+]`, for which the GI50 in the assay with M19-MEL melanoma, in the assay with DLD-1 colon and in the assay with DMS 114 small cell lung was over 100 µM each time. Also, the TGI with M19-MEL melanoma, with DLD-1 colon and in the assay with DMS 114 small cell lung was over 100 µM each time.

In the case of `S=C(N/N=C(/c1ccccc1)c1ccccn1)Nc1cccc(Cl)c1`, in the assay on MDA-N, the GI50 is 1.14 µM; the TGI was 7.35 µM and 6.85 µM.

In the case of `O=C(c1ccc2c3c(ccc(C(=O)C(F)(F)F)c13)CC2)C(F)(F)F`, the TGI in the assay on M19-MEL melanoma is over 100 µM; in the assay with XF 498 CNS, 50.2 µM; in the assay on DLD-1 colon it was over 100 µM; in the assay on DMS 114 small cell lung, over 100 µM; with HOP-18 NSCLC, over 100 µM; in the assay with DMS 273 small cell lung, over 100 µM. The TGI with KM20L2 colon was over 100 µM.

As to `CC(Oc1ccc2cc(C(=O)c3ccccc3)c(=O)oc2c1)C(=O)O` (stereo not drawn), the TGI in the assay on M19-MEL melanoma, in the assay on XF 498 CNS, with DMS 114 small cell lung, in the assay with HOP-18 NSCLC, with RXF-631 renal and in the assay with KM20L2 colon was over 100 µM throughout.

In the case of `ClC[Si]12OCCN(CCO1)CCO2`, the TGI in the assay with DLD-1 colon, with DMS 114 small cell lung, with HOP-18 NSCLC, in the assay with DMS 273 small cell lung and with RXF-631 renal was over 100 µM throughout.

As for `CC1(C)OC(=O)C(=C2CC(c3ccccc3)c3ccccc32)C(=O)O1` (stereo not drawn), the TGI in the assay on M19-MEL melanoma, in the assay on DLD-1 colon, in the assay on DMS 114 small cell lung, in the assay with HOP-18 NSCLC, in the assay with RXF-631 renal and with KM20L2 colon was over 100 µM throughout.

Take `C=C1C(=O)OC2/C=C(\C)C3OC3/C=C(/C(=O)OC)C(OC(C)=O)C(OC(=O)C(C)(O)C(C)OC(C)=O)C12` (stereo not drawn): the TGI with M19-MEL melanoma was determined as 22.4 µM; with XF 498 CNS it was 5.6 µM; in the assay on DLD-1 colon it was 7.52 µM; in the assay with DMS 114 small cell lung, 4.01 µM; in the assay on DMS 273 small cell lung it was 10.6 µM; in the assay on MDA-N it was 69.1 µM. The same compound showed a TGI in the assay with RXF-631 renal of 19.6 µM.

The compound `COc1ccc(CC2C3=C(CCCC3)CCN2C)cc1` (stereo not drawn) yielded a TGI in the assay with MDA-N of over 100 µM.

In turn, `CNC1C(OC2C(OC3C(O)C(O)C(O)C(O)C3O)OC(C)C2(O)CO)OC(CO)C(O)C1O` (stereo not drawn) (tested in a mixture with another compound) displayed a TGI with MDA-N of over 100 µM.

`COc1ccc(/C(C)=N/NC(N)=S)c(OC)c1`: the TGI in the assay on M19-MEL melanoma, with XF 498 CNS, with DLD-1 colon, in the assay with DMS 114 small cell lung, with HOP-18 NSCLC and with RXF-631 renal was over 100 µM throughout. Further, the TGI with KM20L2 colon is over 100 µM.

In the case of `O=C1C(N2C(=O)c3ccccc3C2=O)CN1C(COCc1ccccc1)c1ccc(OCc2ccccc2)cc1` (stereo not drawn), the TGI in the assay on M19-MEL melanoma, in the assay on XF 498 CNS, in the assay with DLD-1 colon, with DMS 114 small cell lung, in the assay on DMS 273 small cell lung and in the assay with KM20L2 colon was over 100 µM throughout.

`CN(C)/C(N)=N/C(N)=S`: the TGI in the assay with M19-MEL melanoma, with XF 498 CNS, in the assay with DLD-1 colon, in the assay on DMS 114 small cell lung, with HOP-18 NSCLC and in the assay with DMS 273 small cell lung was over 100 µM in each case. Further, the TGI in the assay with RXF-631 renal and with KM20L2 colon was over 100 µM each time.

In turn, `O=[N+]([O-])c1ccc(-c2cn(-c3ccc(Cl)cc3)cn2)cc1` returned a TGI in the assay with MDA-N of over 100 µM.

Compound `O=C1OC2C(O)C(=O)OC2C1O` (stereo not drawn) had a TGI in the assay on MDA-N of over 100 µM.

For `CCC(/C(=N\Nc1c(Cl)cc(Cl)cc1Cl)c1ccccc1)n1ccnc1C` (stereo not drawn), the TGI with M19-MEL melanoma turned out to be 29.7 µM; with DLD-1 colon it was 17.2 µM; in the assay on DMS 114 small cell lung, 22.3 µM; with HOP-18 NSCLC it was 30.1 µM; with DMS 273 small cell lung, 19.7 µM; in the assay with RXF-631 renal, 25 µM. In the assay on KM20L2 colon, this compound yielded a TGI of 17.5 µM.

With `CC1=C(c2cc(C(=O)Nc3nccs3)nc(NC#N)n2)Sc2ccccc2N1`, the TGI with M19-MEL melanoma, in the assay on XF 498 CNS, in the assay on DLD-1 colon, in the assay on HOP-18 NSCLC, in the assay with DMS 273 small cell lung and in the assay on RXF-631 renal was over 100 µM each time. Besides, the TGI in the assay on KM20L2 colon was over 100 µM.

For `CC([O-])C(=O)[O-].NCC1CCC1CN.[Pt+4]` (stereo not drawn), in the assay on MDA-N, the GI50 is over 10 µM and the TGI was over 10 µM.

Consider `COc1ccc(C(=O)O)c(Cc2ccc3ccccc3c2)c1`, for which the TGI with M19-MEL melanoma, with XF 498 CNS, with DLD-1 colon, in the assay on DMS 114 small cell lung, in the assay on HOP-18 NSCLC and in the assay with DMS 273 small cell lung was over 100 µM throughout. This compound gave a TGI with KM20L2 colon of over 100 µM.

In the assay on MDA-N, `CC(=O)c1ccc(NCN2C(=O)c3ccccc3C2=O)cc1` registered a TGI of over 100 µM.

`CC(=O)OCC1OC(n2c(-c3ccccc3)c(C)c(C)c(C#N)c2=S)C(OC(C)=O)C(OC(C)=O)C1OC(C)=O` (stereo not drawn): in the assay with MDA-N, the TGI is > 50 µM and 56.6 µM.

`COC(=O)C1C2CCCN2OC1(C)CO` (stereo not drawn) returned a TGI with MDA-N of over 100 µM.

As for `CCN(CC(COc1ccc2c(c1)[n+]([O-])nc(N)[n+]2[O-])OC(C)=O)C(C)=O` (stereo not drawn), in the assay with MDA-N, the TGI was over 100 µM.

Turning to `CC(=O)OCC1OC(Sc2ccccn2)C=CC1OC(C)=O` (stereo not drawn), the TGI in the assay with M19-MEL melanoma, in the assay with XF 498 CNS, in the assay on DLD-1 colon, with DMS 114 small cell lung, in the assay with HOP-18 NSCLC and with DMS 273 small cell lung was over 100 µM each time. Also, the TGI in the assay on KM20L2 colon was over 100 µM.

As for `CC(O[Si](C)(C)C)C1C=CC(C)n2c(=O)n(-c3ccccc3)c(=O)n21` (stereo not drawn), the TGI in the assay with M19-MEL melanoma, in the assay on DLD-1 colon, with DMS 114 small cell lung and in the assay with HOP-18 NSCLC was over 100 µM each time.
